Source: article PMC6631349 (Xenobiotica; the fate of foreign compounds in biological …, 2014)
Like-named read-outs stand apart in the source and are kept apart here.

Key:
[1] = target: T1, UGT2B7 (Homo sapiens, UniProt P16662); experiment: UGT2B7 supersomes-catalyzed 4-MU glucuronidation inhibition; settings: recombinant human UGT, mean of triplicate
T1 sequence (P16662 24-529): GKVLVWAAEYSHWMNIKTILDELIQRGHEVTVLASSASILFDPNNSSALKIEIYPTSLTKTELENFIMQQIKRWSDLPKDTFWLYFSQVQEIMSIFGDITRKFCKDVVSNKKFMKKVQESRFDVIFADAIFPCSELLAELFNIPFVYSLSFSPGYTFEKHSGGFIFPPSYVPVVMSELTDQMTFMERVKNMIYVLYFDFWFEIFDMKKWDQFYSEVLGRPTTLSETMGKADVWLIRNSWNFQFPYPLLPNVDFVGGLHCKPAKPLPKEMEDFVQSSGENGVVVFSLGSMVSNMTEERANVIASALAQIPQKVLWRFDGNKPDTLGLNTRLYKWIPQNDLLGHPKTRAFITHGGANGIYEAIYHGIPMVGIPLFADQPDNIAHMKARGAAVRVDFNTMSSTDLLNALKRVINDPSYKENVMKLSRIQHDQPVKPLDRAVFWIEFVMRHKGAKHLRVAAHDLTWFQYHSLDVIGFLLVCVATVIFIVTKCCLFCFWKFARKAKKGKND

[2] = target: T2, UGT1A1 (Homo sapiens, UniProt P22309); experiment: UGT1A1 supersomes-catalyzed 4-MU glucuronidation inhibition; settings: recombinant human UGT, mean of triplicate
T2 sequence (P22309 26-533): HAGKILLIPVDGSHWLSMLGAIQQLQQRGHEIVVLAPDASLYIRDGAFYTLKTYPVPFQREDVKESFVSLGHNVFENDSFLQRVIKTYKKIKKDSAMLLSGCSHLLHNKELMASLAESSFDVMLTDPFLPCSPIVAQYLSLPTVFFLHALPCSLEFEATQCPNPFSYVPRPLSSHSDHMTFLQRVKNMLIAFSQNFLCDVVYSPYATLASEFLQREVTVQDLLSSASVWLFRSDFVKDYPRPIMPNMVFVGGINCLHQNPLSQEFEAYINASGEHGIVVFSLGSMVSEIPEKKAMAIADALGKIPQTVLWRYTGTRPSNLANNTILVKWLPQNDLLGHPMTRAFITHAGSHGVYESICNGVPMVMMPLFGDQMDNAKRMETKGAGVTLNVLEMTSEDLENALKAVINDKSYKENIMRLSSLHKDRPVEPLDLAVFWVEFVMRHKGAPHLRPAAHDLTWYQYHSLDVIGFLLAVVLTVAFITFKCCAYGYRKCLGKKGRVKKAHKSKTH

[3] = target: T3, UGT1A6 (Homo sapiens, UniProt P19224); settings: for residual activity 1A6: recombinant human UGT, mean of triplicate; for inhibition percentage of UGT1A6 activity: 50 μM
T3 sequence (P19224 27-532): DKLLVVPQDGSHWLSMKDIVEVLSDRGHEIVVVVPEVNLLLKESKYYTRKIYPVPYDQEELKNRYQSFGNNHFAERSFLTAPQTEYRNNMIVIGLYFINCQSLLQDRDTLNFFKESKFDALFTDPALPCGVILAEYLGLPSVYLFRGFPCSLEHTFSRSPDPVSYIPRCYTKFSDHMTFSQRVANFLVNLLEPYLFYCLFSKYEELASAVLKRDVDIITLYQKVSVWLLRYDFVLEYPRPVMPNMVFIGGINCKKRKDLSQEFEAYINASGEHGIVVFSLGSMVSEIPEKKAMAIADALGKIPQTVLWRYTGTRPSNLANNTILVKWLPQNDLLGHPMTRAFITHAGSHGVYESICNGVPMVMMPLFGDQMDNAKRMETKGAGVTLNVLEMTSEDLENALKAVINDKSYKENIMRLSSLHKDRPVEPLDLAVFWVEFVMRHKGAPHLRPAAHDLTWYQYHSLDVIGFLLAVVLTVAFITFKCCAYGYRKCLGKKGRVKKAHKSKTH

[4] = target: T4, UGT2B4 (Homo sapiens, UniProt P06133); experiment: UGT2B4 supersomes-catalyzed 4-MU glucuronidation inhibition; settings: recombinant human UGT, mean of triplicate
T4 sequence (P06133 24-528): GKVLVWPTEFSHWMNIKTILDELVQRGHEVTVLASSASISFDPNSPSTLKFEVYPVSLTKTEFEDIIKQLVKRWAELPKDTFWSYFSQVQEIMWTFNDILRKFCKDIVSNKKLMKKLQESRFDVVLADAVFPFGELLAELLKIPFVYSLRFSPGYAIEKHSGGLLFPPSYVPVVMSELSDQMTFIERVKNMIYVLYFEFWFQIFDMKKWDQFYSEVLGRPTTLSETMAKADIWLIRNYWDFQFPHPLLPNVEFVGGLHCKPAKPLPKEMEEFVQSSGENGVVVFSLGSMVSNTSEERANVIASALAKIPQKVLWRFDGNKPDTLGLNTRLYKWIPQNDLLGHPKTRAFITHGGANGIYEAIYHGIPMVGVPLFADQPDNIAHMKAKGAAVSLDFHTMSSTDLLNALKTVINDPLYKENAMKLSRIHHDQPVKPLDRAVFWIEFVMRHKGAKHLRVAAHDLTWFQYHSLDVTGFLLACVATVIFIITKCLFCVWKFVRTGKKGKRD

[5] = target: T5, UGT1A7 (Homo sapiens, UniProt Q9HAW7); experiment: UGT1A7 supersomes-catalyzed 4-MU glucuronidation inhibition; settings: recombinant human UGT, mean of triplicate
T5 sequence (Q9HAW7 26-530): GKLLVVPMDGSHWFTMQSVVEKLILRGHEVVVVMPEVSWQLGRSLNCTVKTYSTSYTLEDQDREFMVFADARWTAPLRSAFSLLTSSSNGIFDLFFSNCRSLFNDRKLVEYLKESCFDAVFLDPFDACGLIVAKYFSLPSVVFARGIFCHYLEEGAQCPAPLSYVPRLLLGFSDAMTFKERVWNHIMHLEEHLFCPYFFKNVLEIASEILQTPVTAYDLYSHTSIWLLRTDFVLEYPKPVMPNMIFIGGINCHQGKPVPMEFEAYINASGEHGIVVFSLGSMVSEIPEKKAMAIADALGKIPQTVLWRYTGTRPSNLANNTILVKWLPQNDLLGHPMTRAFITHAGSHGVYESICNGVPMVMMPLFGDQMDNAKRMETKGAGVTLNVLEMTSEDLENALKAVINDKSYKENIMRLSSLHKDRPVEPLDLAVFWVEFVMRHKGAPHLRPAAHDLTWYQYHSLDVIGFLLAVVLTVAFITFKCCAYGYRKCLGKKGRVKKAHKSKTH

residual activity 2B7 ([1]; 50 μM PC components)	residual activity 1A1 ([2]; 50 μM PC components)	residual activity 1A6 ([3]; 50 μM PC components)	residual activity 2B4 ([4]; 50 μM PC components)	residual activity 1A7 ([5]; 50 μM PC components)	residual activity 2B7 ([1]; 50 μM LPC components)	residual activity 1A1 ([2]; 50 μM LPC components)	residual activity 1A6 ([3]; 50 μM LPC components)	residual activity 2B4 ([4]; 50 μM LPC components)	residual activity 1A7 ([5]; 50 μM LPC components)	inhibition kinetic type towards UGT1A6 ([3]; Dixon and Lineweaver-Burk plots, 4-MU glucuronidation)	Structure (SMILES)	inhibition percentage of UGT1A6 activity [3]
51.7%	210.1%	55.0%	191.3%	172.7%							CCCCCCCCCCCCCCC(=O)OC[C@H](COP(=O)([O-])OCC[N+](C)(C)C)OC(=O)CCCCCCCCCCCCCC [PC 15:0, 15:0]	
88.9%	202.3%	88.2%	79.5%	125.5%							CCCCCCCCCCCCCCCCCCCC(=O)OC[C@H](COP(=O)([O-])OCC[N+](C)(C)C)OC(=O)CCCCCCCCCCCCCCCCCCC [PC 20:0, 20:0]	
					43.9%	162.9%	2.9%	152.6%	156.2%	competitive inhibition	CCCCCCCCCCCCCCC(=O)OC[C@@H](O)COP(=O)([O-])OCC[N+](C)(C)C [LPC 15:0]	
35.5%	192.3%	49.1%	175.4%	138.9%							CCCCCCCCCCCCCCCCC(=O)OC[C@H](COP(=O)([O-])OCC[N+](C)(C)C)OC(=O)CCCCCCCCCCCCCCCC [PC 17:0, 17:0]	
36.0%	208.2%	50.7%	93.4%	139.9%							CCCCCCCCCCCCCCCCCC(=O)OC[C@H](COP(=O)([O-])OCC[N+](C)(C)C)OC(=O)CCCCCCCCCCCCCCCCC [PC 18:0, 18:0]	
81.4%	201.1%	56.5%	193.8%	160.6%							CCCCCCCCCCCCC(=O)OC[C@H](COP(=O)([O-])OCC[N+](C)(C)C)OC(=O)CCCCCCCCCCCC [PC 13:0, 13:0]	
					79.9%	160.6%	83.8%	239.4%	120.1%		CCCCCCCCCCCCC(=O)OC[C@@H](O)COP(=O)([O-])OCC[N+](C)(C)C [LPC 13:0]	
					81.5%	167.6%	8.5%	333.4%	164.3%		CCCCCCCCCCCCCCCCC(=O)OC[C@@H](O)COP(=O)([O-])OCC[N+](C)(C)C [LPC 17:0]	
					78.0%	167.3%	65.7%	217.6%	149.9%		CCCCCCCCCCC(=O)OC[C@@H](O)COP(=O)([O-])OCC[N+](C)(C)C [LPC 11:0]	

Structure (SMILES)	residual activity 2B7 ([1]; 50 μM PC components)	residual activity 1A1 ([2]; 50 μM PC components)	residual activity 1A6 ([3]; 50 μM PC components)	residual activity 2B4 ([4]; 50 μM PC components)	residual activity 1A7 ([5]; 50 μM PC components)	residual activity 2B7 ([1]; 50 μM LPC components)	residual activity 1A1 ([2]; 50 μM LPC components)	residual activity 1A6 ([3]; 50 μM LPC components)	residual activity 2B4 ([4]; 50 μM LPC components)	residual activity 1A7 ([5]; 50 μM LPC components)	inhibition kinetic type towards UGT1A6 ([3]; Dixon and Lineweaver-Burk plots, 4-MU glucuronidation)	inhibition percentage of UGT1A6 activity [3]
CCCCCCCCCCCC(=O)OC[C@@H](O)COP(=O)([O-])OCC[N+](C)(C)C [LPC 12:0]						72.8%	165.9%	80.2%	255.5%	138.6%		
CCCCCCC(=O)OC[C@H](COP(=O)([O-])OCC[N+](C)(C)C)OC(=O)CCCCCC [PC 7:0, 7:0]	64.5%	176.8%	50.7%	186.9%	150.2%							
CCCCCCCCCC(=O)OC[C@H](COP(=O)([O-])OCC[N+](C)(C)C)OC(=O)CCCCCCCCC [PC 10:0, 10:0]	86.2%	197.9%	23.2%	168.4%	163.2%							76.8%
CCCCCCCC(=O)OC[C@H](COP(=O)([O-])OCC[N+](C)(C)C)OC(=O)CCCCCCC [PC 8:0, 8:0]	71%	155.6%	25.6%	173.1%	114.8%							74.4%
